Laboratory results published in patent publication US9695192B2, “Fused heterocyclic compounds as ion channel modulators” (GILEAD SCIENCES, INC., priority 2011, dated 2017).
Read-outs that look alike come from different tables or passages of the source.

Columns and labels:
[1] = target: hNav1.5 Peak INa (Homo sapiens, UniProt Q14524); experiment: Peak INa screening assay (tonic block and use-dependent block); type: cell-based
Procedure: The assay uses an HEK293 (human embryonic kidney) cell line heterologously expressing the wild-type human cardiac sodium channel, hNav1.5, purchased from Millipore (Billerica, Mass.). No beta subunits were coexpressed with the Na channel alpha subunit. Cells are maintained with standard tissue culture procedures and stable channel expression is maintained with 400 μg/mL Geneticin in the culture medium. […] Experiments are carried out at 23-25° C. […] Currents through open sodium channels are automatically recorded and stored in the Sophion Bioscience Oracle database (Sophion Bioscience, Copenhagen, Denmark). Analysis is performed using QPatch Assay and database software and data are compiled in Excel. Compound stocks are routinely made by the Gilead Sample Bank in plastic vials to 10 mM in dimethyl sulfoxide (DMSO). […] Stocks are sonicated as necessary. […] Compounds are diluted in extracellular solution to 1 μM in glass vials and then transferred to glass well plates before robotic addition to the cells. […] Good separation between the concentrations of test compound to reduce late and peak INa is beneficial to enable separation of the desired effect to reduce late INa-induced electrical and mechanical dysfunction from the undesired effect to reduce peak INa, which can lead to slowing or block of conduction of electrical excitation in the heart. It is contemplated that the compounds of Formula I avoid significant block of peak INa. […] Analysis of peak INa generally requires correction for rundown before determining the % block of peak current by the tested compound. […] Use-dependent block refers to the accumulation of block with increased frequency of channel activation. […] It is therefore expected that reduction of peak INa by compounds of this disclosure will be greater at high heart rates, such as those during tachyarrhythmias, than at normal heart rates. […] The intracellular solution used for the Peak INa assay is the same as outlined for the Late INa assay (see above). […] After establishing the whole cell recording configuration, channels were stimulated to open with low frequency stimulation (0.1 Hz) for 7 minutes so that the recording can be monitored and the extent to which the recording has stabilized can be assessed. […] Both TB and UDB were analyzed by incorporating rundown correction for the peak INa and UDB as calculated by compensating for the small use-dependent effect of the stimulation protocol on peak INa in the absence of compound.

[2] = target: wild-type human cardiac sodium channel, hNav1.5 (Homo sapiens, UniProt Q14524); experiment: Late INa screening assay (QPatch whole cell patch clamp, tefluthrin-enhanced late sodium current); type: cell-based; details: HEK293 hNav1.5, late INa activated with 10 μM Tefluthrin
Summary of the method: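 Automated whole-cell patch clamp of HEK293 cells stably expressing hNav1.5 (no β subunits), 23-25 °C. Late current enhanced by 10 μM tefluthrin, 250 ms steps to −20 mV from −120 mV at 0.1 Hz, measured 225-250 ms. Compounds typically 1 μM, three additions over 7-8 min; % block normalised to 0 Na baseline.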

hNav1.5 Peak INa, sequence (Q14524 whole entry): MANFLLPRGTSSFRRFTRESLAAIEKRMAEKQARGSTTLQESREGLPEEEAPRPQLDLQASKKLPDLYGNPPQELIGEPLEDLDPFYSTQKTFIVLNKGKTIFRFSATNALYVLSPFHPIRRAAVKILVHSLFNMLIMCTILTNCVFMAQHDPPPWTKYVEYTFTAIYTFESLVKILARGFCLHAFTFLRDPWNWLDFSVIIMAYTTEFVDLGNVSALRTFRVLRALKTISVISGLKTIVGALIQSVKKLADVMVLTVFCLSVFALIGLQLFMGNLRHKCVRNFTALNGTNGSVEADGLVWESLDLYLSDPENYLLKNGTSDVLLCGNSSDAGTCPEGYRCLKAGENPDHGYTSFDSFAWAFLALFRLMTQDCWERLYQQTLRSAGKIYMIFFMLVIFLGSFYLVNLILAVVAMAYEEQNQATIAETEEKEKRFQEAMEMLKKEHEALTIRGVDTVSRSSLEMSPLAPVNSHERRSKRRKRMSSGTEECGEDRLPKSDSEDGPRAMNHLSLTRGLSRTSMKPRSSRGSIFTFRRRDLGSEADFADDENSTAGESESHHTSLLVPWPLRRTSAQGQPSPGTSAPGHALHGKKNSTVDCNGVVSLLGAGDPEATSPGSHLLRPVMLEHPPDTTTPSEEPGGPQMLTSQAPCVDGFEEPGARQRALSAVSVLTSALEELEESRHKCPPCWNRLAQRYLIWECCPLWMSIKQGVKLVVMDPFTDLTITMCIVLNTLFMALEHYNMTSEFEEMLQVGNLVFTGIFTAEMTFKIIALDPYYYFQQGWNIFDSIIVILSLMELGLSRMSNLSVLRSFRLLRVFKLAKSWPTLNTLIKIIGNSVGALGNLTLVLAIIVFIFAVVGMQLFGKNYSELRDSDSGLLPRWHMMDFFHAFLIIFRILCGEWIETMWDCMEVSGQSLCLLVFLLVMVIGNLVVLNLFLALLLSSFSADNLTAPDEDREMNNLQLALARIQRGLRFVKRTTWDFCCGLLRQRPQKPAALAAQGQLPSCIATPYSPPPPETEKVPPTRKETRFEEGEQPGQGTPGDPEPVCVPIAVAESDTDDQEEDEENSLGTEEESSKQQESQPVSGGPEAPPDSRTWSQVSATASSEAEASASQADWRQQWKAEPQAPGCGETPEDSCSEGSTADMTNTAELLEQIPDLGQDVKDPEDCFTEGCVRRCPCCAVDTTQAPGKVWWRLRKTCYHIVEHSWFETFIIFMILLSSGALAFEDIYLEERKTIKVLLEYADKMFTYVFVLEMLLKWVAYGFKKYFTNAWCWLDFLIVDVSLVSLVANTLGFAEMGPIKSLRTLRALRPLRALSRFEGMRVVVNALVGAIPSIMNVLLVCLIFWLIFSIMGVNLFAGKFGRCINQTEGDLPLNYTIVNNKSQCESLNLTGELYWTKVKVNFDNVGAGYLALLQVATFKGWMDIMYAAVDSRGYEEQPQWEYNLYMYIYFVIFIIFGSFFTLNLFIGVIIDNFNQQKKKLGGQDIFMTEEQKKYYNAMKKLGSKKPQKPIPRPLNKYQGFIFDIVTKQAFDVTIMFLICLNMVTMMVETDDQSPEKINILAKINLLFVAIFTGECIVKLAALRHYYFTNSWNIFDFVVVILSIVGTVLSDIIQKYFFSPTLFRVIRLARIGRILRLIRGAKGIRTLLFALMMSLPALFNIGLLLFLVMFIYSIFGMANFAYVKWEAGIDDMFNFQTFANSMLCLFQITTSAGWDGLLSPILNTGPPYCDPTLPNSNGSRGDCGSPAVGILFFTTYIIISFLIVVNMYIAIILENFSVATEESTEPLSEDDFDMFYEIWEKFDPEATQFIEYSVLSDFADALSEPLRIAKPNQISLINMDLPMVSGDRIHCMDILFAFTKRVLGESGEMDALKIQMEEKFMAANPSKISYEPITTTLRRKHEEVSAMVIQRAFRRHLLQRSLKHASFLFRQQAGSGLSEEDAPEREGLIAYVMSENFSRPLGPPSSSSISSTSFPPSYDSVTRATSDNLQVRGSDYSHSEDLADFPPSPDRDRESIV
wild-type human cardiac sodium channel, hNav1.5, sequence (Q14524 whole entry): as above

## FC(F)(F)c1ccc(-c2ccc3c(c2)C(NCc2ccccc2)=NCCO3)cc1 [II-2, N-benzyl-7-(4-(trifluoromethyl)phenyl)-2,3-dihydrobenzo[f][1,4]oxazepin-5-amine]
[1]; at 1 μM, 3 Hz stimulation, holding potential −100 mV, read-out: Peak UDB (use-dependent block of peak INa) % Inhibition
  inhibition at 1 µM: 57%
[1]; read-out: Peak TB (tonic block of peak INa) % Inhibition
  inhibition at 1 µM: 27%
[2]
  inhibition at 1 µM: 41%
